This note sets out measurements from patent US11673860B2, “Crystalline siponimod fumaric acid and polymorphs thereof” (TEVA PHARMACEUTICALS INTERNATIONAL GMBH, priority 2018, dated 2023).

A short description of this series: Stability of the solid state form under stress conditions (high temperature and relative humidity). It counts as physicochemical. Conditions: stressed conditions, e.g. high temperature and relative humidity; solid to solid phase / polymorph transformation. From the text:
Pharmaceutical molecules may display solid to solid phase transformations and transformations between polymorphs; which may detected by exposure of the solid state form to stress conditions of e.g., high temperature and high relative humidity.

Structures are written as SMILES.

Regarding `CCc1cc(/C(C)=N/OCc2ccc(C3CCCCC3)c(C(F)(F)F)c2)ccc1CN1CC(C(=O)O)C1.CCc1cc(/C(C)=N/OCc2ccc(C3CCCCC3)c(C(F)(F)F)c2)ccc1CN1CC(C(=O)O)C1.O=C(O)/C=C/C(=O)O` [Crystalline Siponimod fumaric acid], the “thermodynamic and chemical stability of the solid state form” value was “thermodynamically stable and steady under stressed conditions”. Next, `CCc1cc(/C(C)=N/OCc2ccc(C3CCCCC3)c(C(F)(F)F)c2)ccc1CN1CC(C(=O)O)C1.CCc1cc(/C(C)=N/OCc2ccc(C3CCCCC3)c(C(F)(F)F)c2)ccc1CN1CC(C(=O)O)C1.O=C(O)/C=C/C(=O)O` [crystalline Form 7 of Siponimod fumaric acid]: “thermodynamically and chemical stable”.
